What is called IC50 is the concentration needed to halve the response being measured. Read a low IC50 as inhibition by little substance. In general, inhibition refers to the share of the control response that was lost under treatment.

In this experiment the target is T1, human GPR84 receptor (Homo sapiens, UniProt Q9NQS5).
T1 construct: host or cells: HEK293 cells, transient transfection
As to the kind of experiment: Gαi biosensor BRET assay in HEK293 cells transfected with GPR84, stimulated with the GPR84 agonist ZQ-16. It is filed as cell-based. As to conditions: 200 nmol/L ZQ-16; for inhibition at 10 µM / inhibition at 2 µM: HEK293, single concentration; for inhibition at 10 µM: concentration class F = 10 μM; for inhibition at 2 µM: concentration class A = 2 μM. The source says: Background—The following assays can be used for determination of GPR84 activation in living HEK293 cells. The Gαi BRET biosensor (Gagnon et al., 2018; Gales et al., 2006. Nat Struct Mol Biol. 13, 778-86; Saulieres et al., 2012. Nat Chem Biol. 8, 622-30) allows to directly monitor GPR84-mediated activation of Gαi. The Gαi biosensor consists of a Rluc8-tagged Gαi2 subunit, a GFP10-tagged Gγ2 subunit, and an untagged GB1. Agonist stimulation and GPR84 activation triggers a physical separation between the RLuc8-Gαi donor and the GFP10-Gγ2 acceptor, resulting in a decrease in BRET signal whose amplitude is correlated to ligand efficacy (Gales et al., 2006). Moreover, signaling functions of GPCRs are tightly regulated by endocytosis, the targeting of receptors to endosomes and their sorting to lysosomes or recycling to the plasma membrane. The early endosomes (EEs) trafficking assay (Namkung et al., 2016. Nat Commun. 7, 12178) uses Rluc8-tagged GPR84 and Renilla GFP (rGFP) attached to the FYVE domain from human endofin/zinc finger FYVE domain-containing protein 16, which binds phosphatidylinositol 3-phosphate in EEs. Agonist stimulation of GPR84-Rluc8 leads to trafficking of the receptor to EEs, and ensuing increase of the donor concentration relative to the rGFP-FYVE acceptor anchored in the same cellular compartment, and thus results in an increase in BRET signal.
Plasmids—The cDNA clones for human GPR84 receptor, human Gαi2, Gβ1, and Gγ2 were obtained from the cDNA Resource Center (www.cdna.org). GFP10 (F64L, S147P, S202F and H231L variant of Aequorea victoria Green Fluorescent Protein) gBlocks gene fragments (Integrated DNA Technologies, IA) and linker were inserted in frame at the N-terminus of human Gγ2. Rluc8 (A^55T, Cl24A, S130A, K136R, A^143M, M185V, M253L, and S287L variant of the Renilla reniformis luciferase) gBlocks gene fragment was inserted with linkers in frame in between residues 91 and 92 of Gαi2 or at the C-terminus of GPR84. The FYVE domain from human endofin (residues Q739 to K806) attached in frame at the C terminus of a humanized Renilla GFP (rGFP), were synthesized as gBlocks gene fragments.
Bioluminescence Resonance Energy Transfer (BRET) Measurement-HEK293 cells were transfected with GPR84-Rluc8 and rGFP-FYVE for the EEs trafficking biosensor or with GPR84, Gαi2-Rluc8, GFP10-Gγ2, and Gβ1 for the Gαi biosensor. The following day, transiently transfected cells were seeded in 96-well white clear bottom microplates coated with poly-D-lysine and left in culture for 24 hours. Cells were washed once with Tyrode's buffer (140 mmol/L NaCl, 1 mmol/L CaCl2, 2.7 mmol/L KCl, 0.49 mmol/L MgCl2, 0.37 mmol/L NaH2PO4, 5.6 mmol/L glucose, 12 mmol/L NaHCO3, and 25 mmol/L HEPES, pH 7.5) before performing assays in Tyrode's buffer. Test compounds were incubated with cells for 5 (Gai) or 15 (EEs) minutes at 37° C. before addition of 200 nmol/L of the GPR84 agonist ZQ-16 (2-(Hexylthio)-6-hydroxy-4 (3H)-pyrimidinone) for 5 minutes at room temperature (Gai) or 30 minutes at 37° C. (EEs). The Rluc8 substrate coelenterazine 400A (Prolume, Lakeside, AZ) was added at a final concentration of 5 μmol/L and BRET readings were collected using an Infinite M1000 microplate reader (Tecan, Morrisville, NC). BRET2 readings between Rluc8 and GFP10 or rGFP were collected by sequential integration of the signals detected in the 370 to 450 nm (Rluc8) and 510 to 540 nm (GFP10, rGFP) windows. The BRET signal was calculated as the ratio of light emitted by acceptor (GFP10, rGFP) over the light emitted by donor (Rluc8). The values were corrected to net BRET by subtracting the background BRET signal obtained in cells transfected with Rluc8 constructs alone. Ligand-promoted net BRET values were calculated by subtracting vehicle-induced net BRET from ligand-induced net BRET.

T1 sequence (Q9NQS5 whole entry): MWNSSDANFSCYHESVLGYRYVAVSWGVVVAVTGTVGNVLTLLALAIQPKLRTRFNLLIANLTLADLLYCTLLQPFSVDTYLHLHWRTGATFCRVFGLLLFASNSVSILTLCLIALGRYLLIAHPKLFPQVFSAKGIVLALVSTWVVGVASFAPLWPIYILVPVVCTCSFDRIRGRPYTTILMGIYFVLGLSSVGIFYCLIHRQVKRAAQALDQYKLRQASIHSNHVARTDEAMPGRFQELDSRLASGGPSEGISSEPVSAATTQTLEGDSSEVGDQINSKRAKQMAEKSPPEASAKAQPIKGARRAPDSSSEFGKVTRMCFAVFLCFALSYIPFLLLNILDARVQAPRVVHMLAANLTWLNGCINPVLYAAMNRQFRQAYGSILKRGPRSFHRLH

The compound `CN(C)c1cc(N2CC(C)(CO)C2)ccc1-c1cn(CC2OCC(C)(C)CO2)cn1` [Compound I-39] came in with a concentration for half-maximal inhibition (IC50) of 0.3 to 1 µM and an inhibition at 10 µM of over 75%. The compound `CCCOc1cc(C#CC2CC2)cnc1-c1cn(CC(=O)N(C)C)nn1` [Compound I-221] registered an inhibition at 10 µM of 50 to 75%. `CN(C)C(=O)Cn1cc(-c2ncc(C#CC3CC3)cc2OC2CC2)cn1` [Compound I-216] displayed an inhibition at 10 µM of at most 25%. Same read-out and setting: under `C(#CC1CC1)c1cnc(-c2cncn2C[C@H]2CCCCO2)c(OC2CC2)c1` [Compound I-53] stands at most 25%. On to `CN(C)c1cc(N2CC3(COC3)C2)c(F)cc1-c1cn(CC2OCC3(CC3)CO2)nn1` [Compound I-25], for which the concentration for half-maximal inhibition (IC50) was at most 0.3 µM and the inhibition at 2 µM was over 75%.

As to `Fc1ccc(C#CC2CC2)cc1-c1nnc(-c2cn(CC3OCC4(CC4)CO3)nn2)o1` [Compound I-258], the inhibition at 10 µM fell in the range of 25 to 50%.

For `O=C(Cn1cc(-c2ncc(C#CC3CC3)cc2OC2CC2)nn1)N1CC[C@@H](O)C1` [Compound I-245], the half-maximal inhibitory concentration (IC50) was in the range of 1 to 3 µM and the inhibition at 10 µM was over 75%.

For `O=C(Cn1cc(-c2ncc(-c3nnn[nH]3)cc2OC2CC2)nn1)N1CCCC1` [Compound I-233], the inhibition at 10 µM was 25 to 50%. Same read-out and setting: as for `CN(C)C(=O)Cn1cnc(-c2ccc(N3CC(C)(CO)C3)cc2N(C)C)c1` [Compound I-47], the figure is 50 to 75%. The compound `C(#CC1CC1)c1cnc(-c2cnn(CC3OCC4(CC4)CO3)c2)c(OC2CC2)c1` [Compound I-218] showed an IC50 of 0.3 to 1 µM and an inhibition at 2 µM of over 75%. `O=C(O)Cn1cc(-c2ncc(C#CC3CC3)cc2OC2CC2)nn1` [Compound I-63] came in with an inhibition at 10 µM of at most 25%.

`O=C(Cn1cc(-c2ncc(C#CC3CC3)cc2OC2CC2)nn1)N1CC[C@H](O)C1` [Compound I-244]: the IC50 is 1 to 3 µM and the inhibition at 10 µM was over 75%. Compound `CN(C)c1cc(C#CC2(O)CC2)ccc1-c1cn(CC2OCC(C)(C)CO2)nn1` [Compound I-28] showed a half-maximal inhibitory concentration (IC50) of at most 0.3 µM and an inhibition at 2 µM of over 75%. For `OC1CC2(C1)CN(c1cnc(-c3cn(CC4OCC5(CC5)CO4)nn3)c(OC3CC3)c1)C2` (stereo not shown) [Compound I-31], the IC50 is at most 0.3 µM and the inhibition at 10 µM was over 75%. As for `c1c[nH]c(-c2cnc(-c3cn(CC4OCC5(CC5)CO4)nn3)c(OC3CC3)c2)n1` [Compound I-229], the inhibition at 10 µM is at most 25%.

Regarding `CC1(C)COC(Cn2cc(-c3ccc(C#CCOC4CC4)cc3C3CC3)nn2)OC1` [Compound I-3], the concentration for half-maximal inhibition (IC50) lay within 0.3 to 1 µM and the inhibition at 10 µM is over 75%. `C(#Cc1cnc(-c2cn(CC3OCC4(CC4)CO3)nn2)c(OC2CC2)c1)CN1CC2(CC2)C1` [Compound I-9] registered an IC50 of at most 0.3 µM and an inhibition at 2 µM of over 75%. Turning to `Cc1ccc(C#CC2CC2)cc1-c1nnc(-c2cn(CC3OCC4(CC4)CO3)nn2)o1` [Compound I-255], the inhibition at 10 µM fell in the range of 50 to 75%. As to `c1ncc(-c2cnc(-c3cn(CC4OCC5(CC5)CO4)nn3)c(OC3CC3)c2)[nH]1` [Compound I-228], the IC50 was at most 0.3 µM and the inhibition at 2 µM was over 75%. Take `CN(c1cn(CC2OCC(C)(C)CO2)nn1)c1cc(C#N)ccc1Cl` [Compound I-159]: the inhibition at 10 µM lay within 25 to 50%. The compound `C(#CC1CC1)Cn1cc(-c2ncc(-c3nnn[nH]3)cc2OC2CC2)nn1` [Compound I-234] came in with an inhibition at 10 µM of over 75%. On the same count and under the same terms, as for `CN(C)C(=O)Cn1cc(-c2ncc(C#CC3(O)CC3)cc2OC2CC2)nn1` [Compound I-252], the figure is over 75%. `Cc1ccc(C2CC2)nc1-c1cn(CC2OCC(C)(C)CO2)nn1` [Compound I-11] had an inhibition at 2 µM of at most 25%. Compound `CN(c1ccc(C#CC2CC2)cc1)c1cn(CC2OCC(C)(C)CO2)nn1` [Compound I-149] came in with an inhibition at 10 µM of at most 25%. Same read-out and setting: as for `O=C(Cn1cc(-c2ncc(C#CC3CC3)cc2OC2CC2)nn1)N1C[C@H](O)[C@@H](O)C1` [Compound I-247], the figure is over 75%; as for `O=C(NC1CC1)c1cnc(-c2cn(CC3OCC4(CC4)CO3)nn2)c(OC2CC2)c1` [Compound I-57], 25 to 50%; as for `O=C(Cn1cc(-c2ncc(C#CC3(O)CC3)cc2OC2CC2)nn1)N1CCCC1` [Compound I-250], over 75%. Still for that read-out and setting: as for `Clc1cc(N2CCN(Cc3ccccn3)CC2)cnc1-c1c[nH]cn1` [Compound I-215], the figure is at most 25%; as for `O=C(Cn1cc(-c2ncc(C#CC3CC3)cc2OC2CC2)nn1)N1CCOCC1` [Compound I-268], 25 to 50%. Take `Cc1cc(C#CC2CC2)ccc1-c1nnc(-c2cn(CC3OCC4(CC4)CO3)nn2)o1` [Compound I-220]: the IC50 was in the range of 0.3 to 1 µM and the inhibition at 10 µM is over 75%. `c1nc(-c2cn(CC3OCC4(CC4)CO3)nn2)c(OC2CC2)cc1-c1cnn[nH]1` [Compound I-224] returned an IC50 of at most 0.3 µM and an inhibition at 2 µM of over 75%. The matching figures for `OC1(C#Cc2cnc(-c3cn(CC4OCC5(CC5)CO4)nn3)c(OC3CC3)c2)CC1` [Compound I-35]: at most 0.3 µM and over 75%. `CC1(C)COC(Cn2ncc(C#Cc3ccncc3)n2)OC1` [Compound I-43]: the inhibition at 10 µM was at most 25%.

The compound `CC1(C)COC(Cn2cc(-c3ncc(C#CCN4CC(C)(CO)C4)cc3OC3CC3)nn2)OC1` [Compound I-143] showed an inhibition at 2 µM of over 75%. `CC(O)C1(C)CN(c2ccc(-c3cn(CC4OCC5(CC5)CO4)nn3)c(N(C)C)c2)C1` (stereo not shown) [Compound I-30]: the IC50 is at most 0.3 µM and the inhibition at 2 µM was over 75%.

`Fc1cc(C#CC2CC2)ccc1-c1nnc(-c2cn(CC3OCC4(CC4)CO3)nn2)o1` [Compound I-257] registered an inhibition at 10 µM of over 75%. `C(#CC1CC1)c1cnc(-c2cn(C[C@H]3CCCCO3)cn2)c(OC2CC2)c1` [Compound I-54] showed an IC50 of at most 0.3 µM and an inhibition at 2 µM of over 75%. For the compound `Cc1cc(C#CC2CC2)cnc1-c1nnc(-c2cn(CC3OCC4(CC4)CO3)nn2)o1` [Compound I-256], the inhibition at 10 µM is at most 25%. As to `CN(C)C(=O)CCn1cc(-c2ncc(C#CC3CC3)cc2OC2CC2)nn1` [Compound I-213], the inhibition at 10 µM is 25 to 50%. On the same count and under the same terms, as for `C(#CC1CC1)c1ccc(-c2nnc(-c3cn(CC4OCC5(CC5)CO4)nn3)o2)cc1` [Compound I-254], the figure is 25 to 50%; as for `O=C(Cn1cnc(-c2ncc(C#CC3CC3)cc2OC2CC2)c1)N1CCCC1` [Compound I-242], 50 to 75%. `CN(C)C(=O)Cn1cc(-c2nc(O)c(C#CC3CC3)cc2OC2CC2)nn1` [Compound I-251] gave an inhibition at 2 µM of at most 25%. For `O=C(Cn1cc(-c2ncc(C#CC3CC3)cc2OC2CC2)nn1)N1C[C@@H](O)[C@@H](O)C1` [Compound I-248], the inhibition at 10 µM was over 75%. For the compound `Cn1cc(-c2cnc(-c3cn(CC4OCC5(CC5)CO4)nn3)c(OC3CC3)c2)cn1` [Compound I-239], the IC50 is at most 0.3 µM and the inhibition at 10 µM was over 75%.

`CC1(CO)CN(c2cnc(-c3cn(CC4CC5(CC5)CO4)nn3)c(OC3CC3)c2)C1` (stereo not shown) [Compound I-26]: the inhibition at 10 µM was over 75%.

The values above are taken from patent publication US20260256747A1, “ARYL-TRIAZOLYL AND RELATED GPR84 ANTAGONISTS AND USES THEREOF” (Liminal BioSciences Limited, priority 2022, published 2026).
